Laboratory results published in patent publication EP4144350B1, “TREATMENT OR PREVENTION OF VASCULAR MALFORMATION” (Universitätsmedizin Greifswald, priority 2021, dated 2023).

Assays:
Type in all cases: cell-based, human
[1] = system: CCM3^-/- CI-huVECs in co-culture with CCM3^+/+ CI-huVECs; experiment: Spike-in co-culture assay / apoptosis compound library screening: CCM3 knockout allele frequency by amplicon deep sequencing; conditions: for Knockout allele frequencies: 10 µM of each compound, six days, added 5 h and 3 days after seeding, DMSO-treated co-culture controls 33.5 %
Protocol: Clonally expanded CI-huVEC lines with biallelic loss-of-function variants in the first coding exon of CCM3 have been described before or were established according to a published CRISPR/Cas9 genome editing protocol. Blood outgrowth endothelial cells (BOECs) were cultured in EGM-2 medium (Lonza, Basel, Switzerland) supplemented with 18 % FCS. With the approval of the local ethics committee (University Medicine Greifswald, Germany; No.: BB 047/14a), CCM1^-/- BOECs had been established previously from CCM1^+/- BOECs of a CCM1 mutation carrier with CRISPR/Cas9 genome editing. Mutant and wild-type ECs were co-cultured in 96-well plates under standard culture conditions with the indicated mutant-to-wild-type ratios. 2500 cells were seeded per well.
An apoptosis compound library with 189 small molecules that target apoptosis, survival and proliferation was used in a high throughput screening approach (HY-L003[HY-LD-000001651]; MedChem Express, Monmouth Junction, NJ, USA). Co-cultures were treated with 10 µM of each substrate for six days. Compounds were added 5 h and 3 days after cell seeding.
NSC59984 (IUPAC: (2E)-1-(4-Methyl-1-piperazinyl)-3-(5-nitro-2-furyl)-2-propen-1-one, HY19726, MedChem Express), was used for individual experiments with the indicated concentrations.
The fraction of mutant alleles in co-culture were analysed by amplicon deep sequencing or T7EI cleavage assay. In brief, genomic target regions were first amplified by PCR. For T7E1 cleavage assays, heteroduplexes were formed and digested with T7EI enzyme (New England Biolabs, Frankfurt am Main, Germany). Cleavage products were visualised by gel electrophoresis and analysed with the Image Lab software (v6.0, Bio-Rad, Hercules, CA, USA). For NGS analysis, sequencing adapters and individual barcodes were introduced in a second round of PCR [7]. Sequencing libraries were pooled and sequenced on a MiSeq instrument with 2 x 150 cycles (Illumina, San Diego, CA, USA). The data were analysed with the SeqNext software (JSI Medical Systems, Ettenheim, Germany).

CI-huVECs = experiment: Bright-field microscopy of EC morphology after compound treatment; conditions: library screening follow-up (Fig. 14)
caspase-3 = experiment: Caspase-3 activity assay
Protocol: The proliferation rate of mutant and wild-type ECs in monoculture was quantified with the CyQuant® Cell Proliferation Assay Kit (C7026, Thermo Fisher Scientific). To discriminate the proliferation rates of CCM3^+/+ and CCM3^-/- CI-huVEC in co-culture, the CyQuant® Cell Proliferation Assay results were combined with mutant allele frequencies that had been determined by amplicon deep sequencing. To analyse their sensitivity to apoptosis, mutant and wild-type ECs were seeded in 96-well plates with 15.000 cells per well, and treated with staurosporine (S440, Sigma-Aldrich, St. Louis, MO, USA) 24 h later. The Caspase-3 DEVD-R110 Fluorometric HTS Assay Kit (30009, Biotium, Fremont, CA, USA), the Cell Meter™ Caspase 8 Activity Apoptosis Assay Kit (22798, AAT Bioquest, Sunnyvale, CA, USA), and the Cell Meter™ Caspase 9 Activity Apoptosis Assay Kit (22799, AAT Bioquest) were used following the manufacturer's instructions.

[2] = system: CCM3^+/+ and CCM3^-/- CI-huVECs; experiment: Cell viability after compound treatment; conditions: for Cell viability differences between CCM3^+/+ and CCM3^-/- CI-huVECs: 72 h after treatment (Fig. 15)

SMILES	Knockout allele frequencies [1]	EC morphology / endothelial phenotype (CI-huVECs)	Apoptosis / caspase-3 activation (caspase-3; Fig. 16)	Cell viability differences between CCM3^+/+ and CCM3^-/- CI-huVECs [2]	Cell viability ([2]; Fig. 15)	Reversal of the NSC59984 (10 µM) effect on clonal expansion of CCM3^-/- cells ([1]; UC2288 1 to 10 µM together with NSC59984 10 µM (Fig. 28))	Caspase-3 activities (caspase-3; treatment for 24 h, CCM3^+/+ and CCM3^-/- CI-huVECs (Fig. 16))
CC(C)S(=O)(=O)c1ccc2nccc(Nc3ccc4scnc4c3)c2c1 [GSK-872]	65.1%	more compact EC morphology	induced moderate caspase-3 activation	increased the viability of CCM3^-/- CI-huVECs	increased cell viability at low concentrations		
O=C(Nc1ccc(Cl)c(C(F)(F)F)c1)NC1CCC(Oc2ccc(C(F)(F)F)cn2)CC1 (stereo not shown) [UC2288, reference compound]						could not be reversed	
C=C1C(=O)O[C@@H]2C[C@@]3(C)CCCC(=C)[C@@H]3C[C@H]12 [isoalantolactone, reference compound]	7.7%	induced an abnormal endothelial phenotype and significant cell death		No cell viability differences			did not increase caspase-3 activities
